Laboratory results: patent US8063049B2, “Inhibitors of MEK” (Ardea Biosciences, Inc., priority 2007, dated 2011)

Key:
[1] = test system: phosphorylated ERK in MDA-MB-231 breast cancer cells; experiment: Western blotting for phosphorylated ERK in EGF-stimulated MDA-MB-231 cells; assay type: cell-based; conditions: Homo sapiens, 30 min compound, 100 ng/ml EGF for 5 min, phospho-ERK Western blot
Procedure: Effects of compounds in the cell can be determined by Western blotting for phosphorylated ERK. MDA-MB-231 breast cancer cells are plated in a 48 well plate at 20,000 cells per well and are grown in a 37° humidified CO2 incubator. The following day, the growth media (DMEM+10% fetal bovine serum) is removed and replaced with starve media (DMEM+0.1% fetal bovine serum). Cells are incubated in the starve media for sixteen hours and then treated with a range of compound concentrations for thirty minutes.
After incubation with compound, cells are stimulated with 100 ng/ml EGF for five minutes. The cells are then lysed and analyzed by Western blot using a monoclonal antibody raised to phosphorylated ERK. The signal is amplified using a secondary antibody conjugated to a near-IR dye and detected on a Licor Odyssey scanner.

[2] = biological target: T1, Human GST-MEK1CA (constitutively active MEK1, Ser218Asp and Ser222Asp) (Homo sapiens, UniProt Q02750, S218D/S222D); experiment: MEK1 enzymatic activity assay (33P incorporation, MEK1CA/ERK2/MBP); assay type: biochemical; conditions: MEK1CA with ERK2, MBP and [γ33P]ATP; 30 min preincubation, 60 min reaction
T1 construct: GST; made in house; host or cells: Escherichia coli
Text: Materials and preparation of reagents: Human GST-MEK1 and the constitutively […] active allele GST-MEK1^CA (harboring the mutations Ser218Asp and Ser222Asp) can be subcloned into the yeast expression vector pGEM4Z (Promega, Madison, Wis.) from the wild type human MEK1 cDNA. GST-MEK1CA was expressed in Escherichia coli and can be partially purified using Glutathione Sepharose 4B affinity resin (Amersham Pharmacia Biotech, Piscataway, N.J.). The ERK2 allele can be subcloned from MAPK2/Erk2 cDNA (wild type) in […] pUSEamp (Upstate Biotechnology, Inc., Waltham, Mass.) into the vector pET21a (Novagen, Madison, Wis.) resulting in an N-terminal histidine-tagged mouse ERK2 allele. ERK2 can be expressed and purified to homogeneity [Zhang, 1993 #33]. Myelin basic protein (MBP) can be purchased from Gibco BRL (Rockville, Md.). EasyTides adenosine 5′-triphosphate (ATP) ([γ-33P]) (NEN Perkin Elmer, Wellesley, Mass.) is the source of radiolabel for all kinase reactions. Activated Raf-1 (truncated) and activated MAPKinase 2/ERK2 can be purchased from Upstate, Inc. (Lake Placid, N.Y.). 4-20% Criterion Precast gels can be purchased from Bio-Rad (Hercules, Calif.).
Determination of enzymatic activity: Compounds are diluted from dimethylsulfoxide (DMSO) stocks into 1×HMNDE (20 mM HEPES pH 7.2, 1 mM MgCl2, 100 mM NaCl, 1.25 mM DTT, 0.2 mM EDTA). A typical 25-microliter assay contained 0.002 nanomoles MEK1^CA, 0.02 nanomoles ERK2, 0.25 nanomoles MBP, 0.25 nanomoles unlabeled ATP, and 0.1 μCi [γ33P] ATP. The screening assay essentially comprises four additions. Five μl of diluted compound are dispensed to 96-well assay plates. Ten μl of 2.5× enzyme cocktail (MEK1^CA and ERK2 only) are then added to each well followed by a preincubation for 30 minutes at ambient temperature. Ten μl of 2.5× substrate cocktail (labeled and unlabeled ATP plus MBP) are then added, followed by incubation for 60 minutes at ambient temperature. Finally, 100 μl of 10% trichloroacetic acid (TCA) are added and incubated for 30 minutes at room temperature to halt the reaction and precipitate radiolabeled protein products. Reaction products are harvested on glass fiber 96 well filter plates prewetted with water and 1% pyrophosphate. The filter plate is then washed 5 times with water. Water is displaced by absolute ethanol and the plate is allowed to air dry for 30 minutes at room temperature. A back seal is applied manually and 40 μl of scintillation cocktail are dispensed to each well. A top seal is applied and the plate is counted in the TopCount for two seconds per well.

T1 sequence (Q02750 whole entry S218D/S222D): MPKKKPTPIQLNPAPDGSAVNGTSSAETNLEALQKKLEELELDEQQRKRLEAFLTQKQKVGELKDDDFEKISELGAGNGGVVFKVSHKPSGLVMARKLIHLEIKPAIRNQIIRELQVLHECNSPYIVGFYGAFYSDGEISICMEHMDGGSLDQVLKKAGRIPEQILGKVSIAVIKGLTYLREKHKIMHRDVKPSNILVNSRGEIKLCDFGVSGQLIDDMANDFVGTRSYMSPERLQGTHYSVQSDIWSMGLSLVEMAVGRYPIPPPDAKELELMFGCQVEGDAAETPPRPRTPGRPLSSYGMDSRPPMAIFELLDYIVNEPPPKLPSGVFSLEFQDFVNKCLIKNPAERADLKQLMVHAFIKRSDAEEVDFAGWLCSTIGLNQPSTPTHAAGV

| EC50 [1] [nM] | IC50 [2] [nM] | Compound |
| --- | --- | --- |
| 1 to 10 | 10 to 100 | Cn1cnc2c(F)c(Nc3ccc(I)cc3F)c(NS(=O)(=O)C3(CCO)CC3)cc21 [Example 2, N-(4-fluoro-5-(2-fluoro-4-iodophenylamino)-1-methyl-1H-benzo[d]imidazol-6-yl)-1-(2-hydroxyethyl)cyclopropane-1-sulfonamide] |
| 1 to 10 | 10 to 100 | Cc1noc2c(F)c(Nc3ccc(I)cc3F)c(NS(=O)(=O)C3CC3)cc12 [Example 3, N-(7-fluoro-6-(2-fluoro-4-iodophenylamino)-3-methylbenzo[d]isoxazol-5-yl)cyclopropanesulfonamide] |
| 1 to 10 | 10 to 100 | Cc1noc2c(F)c(Nc3ccc(I)cc3F)c(NS(=O)(=O)C3(CCO)CC3)cc12 [Example 4, 1-(2-hydroxyethyl)-N-(7-fluoro-6-(2-fluoro-4-iodophenylamino)-3-methylbenzo[d]isoxazol-5-yl)cyclopropane-1-sulfonamide] |
| 0.1 to 1 | 1 to 10 | Cc1noc2c(F)c(Nc3ccc(I)cc3F)c(NS(=O)(=O)C3(CC(O)CO)CC3)cc12 (centres unmarked) [Example 5, 1-(2,3-dihydroxypropyl)-N-(7-fluoro-6-(2-fluoro-4-iodophenylamino)-3-methylbenzo[d]isoxazol-5-yl)cyclopropane-1-sulfonamide] |
| 1 to 10 | 100 to 1000 | Cc1noc2c(F)c(Nc3ccc(Br)cc3Cl)c(NS(=O)(=O)C3CC3)cc12 [Example 6, N-(7-fluoro-6-(4-bromo-2-chlorophenylamino)-3-methylbenzo[d]isoxazol-5-yl)cyclopropanesulfonamide] |
| 10 to 100 | 10 to 100 | Cc1onc2c(F)c(Nc3ccc(I)cc3F)c(NS(=O)(=O)C3CC3)cc12 [Example 7, N-(7-fluoro-6-(2-fluoro-4-iodophenylamino)-3-methylbenzo[c]isoxazol-5-yl)cyclopropanesulfonamide] |
| 10 to 100 | 100 to 1000 | O=S(=O)(Nc1cn2ccnc2c(Cl)c1Nc1ccc(Br)cc1Cl)C1CC1 [Example 9, N-(7-(4-bromo-2-chlorophenylamino)-8-chloroimidazo[1,2-a]pyridin-6-yl)cyclopropanesulfonamide] |
| 10 to 100 | 100 to 1000 | O=S(=O)(Nc1cn2ccnc2c(Cl)c1Nc1ccc(Br)cc1Cl)C1(CCO)CC1 [Example 10, N-(7-(4-bromo-2-chlorophenylamino)-8-chloroimidazo[1,2-a]pyridin-6-yl)-1-(2-hydroxyethyl)cyclopropane-1-sulfonamide] |
| 1 to 10 | 10 to 100 | O=S(=O)(Nc1cn2ccnc2c(Cl)c1Nc1ccc(I)cc1F)C1(CCO)CC1 [Example 12, N-(8-chloro-7-(2-fluoro-4-iodophenylamino)imidazo[1,2-a]pyridin-6-yl)-1-(2-hydroxyethyl)cyclopropane-1-sulfonamide] |
| 0.1 to 1 | 10 to 100 | Cc1c(Nc2ccc(I)cc2F)c(NS(=O)(=O)C2CC2)cn2ccnc12 [Example 14, N-(7-(2-fluoro-4-iodophenylamino)-8-methylimidazo[1,2-a]pyridin-6-yl)cyclopropanesulfonamide] |
| 10 to 100 | 10 to 100 | Cc1c(Nc2ccc(I)cc2F)c(NS(=O)(=O)C2(CC(O)CO)CC2)cn2ccnc12 (centres unmarked) [Example 16, 1-(2,3-dihydroxypropyl)-N-(7-(2-fluoro-4-iodophenylamino)-8-methylimidazo[1,2-a]pyridin-6-yl)cyclopropane-1-sulfonamide] |
| 10 to 100 | 100 to 1000 | Cc1c(Nc2ccc(Br)cc2Cl)c(NS(=O)(=O)C2CC2)cn2ccnc12 [Example 17, N-(7-(4-bromo-2-chlorophenylamino)-8-methylimidazo[1,2-a]pyridin-6-yl)cyclopropanesulfonamide] |
| 10 to 100 | 1000 to 10000 | Cc1c(Nc2ccc(Br)cc2Cl)c(NS(=O)(=O)C2(CCO)CC2)cn2ccnc12 [Example 18, N-(7-(4-bromo-2-chlorophenylamino)-8-methylimidazo[1,2-a]pyridin-6-yl)-1-(2-hydroxyethyl)cyclopropane-1-sulfonamide] |
| 1 to 10 | 1000 to 10000 | Cc1c2cc(NS(=O)(=O)C3CC3)c(Nc3ccc(I)cc3F)c(F)c2nn1C [Example 29, N-(6-(2-fluoro-4-iodophenylamino)-7-fluoro-2,3-dimethyl-2H-indazol-5-yl)cyclopropanesulfonamide] |
| 100 to 1000 | 10000 to 50000 | Cc1nn(C)c2c(F)c(Nc3ccc(I)cc3F)c(NS(=O)(=O)C3CC3)cc12 [Example 30, N-(6-(2-fluoro-4-iodophenylamino)-7-fluoro-1,3-dimethyl-1H-indazol-5-yl)cyclopropanesulfonamide] |
| 100 to 1000 | 10000 to 50000 | Cc1ncnc2c(F)c(Nc3ccc(I)cc3F)c(NS(=O)(=O)C3CC3)cc12 [Example 34, N-(7-(2-fluoro-4-iodophenylamino)-8-fluoro-4-methylquinazolin-6-yl)cyclopropanesulfonamide] |
